Reference: patent US10906909B2, “Treatment of cognitive and mood symptoms in neurodegenerative and neuropsychiatric disorders with ALPHA5-containing GABAA receptor agonists” (UWM Research Foundation, Inc., priority 2016, dated 2021)
Where “and” joins values, the source holds several entries; their conditions need not be identical. Equal entries are not always repeated. Entries after “also recorded” stand apart in the source; their conditions may differ.

Tests used:
[1] = test system: Female Swiss Webster mice; experiment: Rotarod sensorimotor / locomotor coordination; type: in vivo, mouse; details: 40 mg/kg oral gavage; 15 rpm, 3 min; 10, 30, 60 min after dosing
Protocol: Female Swiss Webster mice (10 weeks of age) from Charles River Laboratory, WIL, MA were used for the experiments. The animals were housed under specific pathogen-free conditions, under standard conditions of humidity, temperature and a controlled 12 h light and dark cycle and had free access to food and water. The sensorimotor rotarod test was carried out 10, 30 and 60 minutes after the injection. Mice were tested on a rotarod at 15 rpm for maximum 3 min and the time of fall was recorded. Falling before the 3 minutes period of testing assesses of locomotor coordination impairment induced by the compound.
Mice (N=10/group) received a single administration via oral gavage of test compound (40 mg/kg), diazepam (5 mg/kg), or vehicle (2% polyethylene glycol, 2.5% hydroxypropylmethyl cellulose solution).

[2] = Mouse liver microsome stability assay; type: in vitro ADME; details: 10 μM compound; for half-life at 10 μM: mouse, liver microsomes, read-out: Half-life (min) (MouseLM); for % left (MouseLM), (1 h): cells marked (1 h)
Protocol: (§1) Human and mouse liver microsomes were obtained fom BD Gentest.
(§2) Each evaluation included six independent assays carried out three at a time, on two different days
(§3) 2. For a total volume of Microsomal Assay Mixture (MAM) 390 μL, sufficient for seven time points, combine the following
(§4) 3. Sonicate MAM for 5 min and meanwhile thaw microsomes (20 mg/mL) (BD Gentest, Cat #452156) on ice.
(§5) 4. Aliquot 100 μL of ice cold ISTD into 7 separate 1.5 mL conical vials and label them the time points for 0, 10, 20, 40, 60, 90, and 120 min.
(§6) 5. Arrange the timer. Microsomes (Final concentration of 0.5 mg/mL) should be added to all time points except the zero time point.
(§7) 6. Add 50 μL of the MAM solution to the conical vial labelled as zero time point. Place the remaining MAM solution in the incubator (37° C.) for 5 min and initiate the reaction with addition of microsomes (8.8 μL) and record the time.
(§8) 7. At the end of each time interval remove 50 μL and add 100 μL to ISTD in conical vial, sonicate for 10 sec and spin down at 10,000 rpm for 5 minutes.
(§9) 8. Take 100 μL of supernatant and transfer to Spin-X HPLC filter tubes (Corning Incorporated, Cat #8169) and centrifuge at 13,000 rpm for 5 minutes and take 5 μL from this solution and dilute in 495 μL of LCMS grade methanol (Fischer scientific, CAS #67-56-1) in an 2 mL glass auto sampler vial (Microsolv, Cat #95025-WCV) 9. The samples are analyzed by LCMS-8040. (Shimadzu)
(§10) Calculation: From the peak area, calculate the following
(§11) The compounds are tested for the metabolic stability in the Human and Mouse Liver microsomes at 10 μM concentration.

[3] = test system: mice subjected to chronic restraint stress (CRS); experiment: Y-maze alternation task, chronic restraint stress (CRS) mice; type: in vivo, mouse
Protocol: C57/B16 mice, males and females were ordered from Jackson Laboratories at 8 weeks old and were kept in normal housing conditions (12 h light ON cycle starting at 7 am/water and food ad libitum) for one week. During this week, animals were single housed and handled to reduce the anxiety-like response toward the experimenter. To induce a working memory deficit, mice were subjected to a chronic restraint stress protocol (CRS). They were placed in a 50 ml Falcon® tube, twice a day, for 1 hour during their diurnal cycle. The time of occurrence of the stress was randomized every day to avoid predictability. CRS was not applied on testing days. Y-maze test occurred 15 hours minimum after the last stressor.
Mice were first habituated to the Y-maze apparatus and distal cues during 2 consecutive days over a 10 min free exploration session (one session per day). The next day, animals performed a training session consisting in seven successive trials separated by a 30 s inter-trial interval (ITI); during this training session, mice were familiarized with the experimental procedure (opening and closing of the doors and confinement into the goal arms). For each trial, mice remained in the start-box for a 30 s ITI. Then, the door was opened and the mouse was allowed to enter freely one of the two goal arms; the chosen arm was closed and the choice was recorded. After a 30 s confinement period into the chosen arm, the mouse was removed and brought back to the start-box for a second trial identical to the first one and this procedure was repeated over the series of trials.
The same general procedure used in the training session was implemented 24 h later, except that the ITI was lengthened to 90 s. For this experiment, animals were acutely injected i.p. with vehicle or αPAM, 30 minutes before the beginning of the test. To dissociate memory deficits from an eventual progressive loss of motivation to alternate over the series, an 8th trial was added to the series which was separated from the 7th trial by a shorter ITI (5 s). All animals failing to alternate at the 8th trial were excluded. The mean alternation rate was calculated and was expressed in percentage (number of alternation done by the animal/total number of alternation possible×100)±SEM. The percentage of alternation during the entire task is considered as an index of working memory performance (50% of being a random alternation rate). Factorial ANOVA was applied to the data to reveal differences between groups. If the ANOVA was significant for group effect (p<0.05), Scheffe post-hoc analysis were conducted to identify which groups are different from each other.
(§12) All drugs were diluted in a vehicle solution containing 85% H2O, 14% propylene glycol (Sigma Aldrich) and 1% Tween 80 (Sigma Aldrich). Working solutions were prepared at a concentration of 10 mg/mL and administered i.p. adjusted to the body weight of each animal. Doses used were either 1, 5, 10 or 20 mg/kg. For all Y maze experiments, animals were acutely injected i.p. with vehicle or αPAM, 30 minutes before the beginning of the test.

[4] = Human liver microsome stability assay; type: in vitro ADME; details: 10 μM compound; for half-life at 10 μM: human, liver microsomes, read-out: Half-life (min) (HumanLM); for % left (Human LM), (1 h): cells marked (1 h)
Protocol: as §1, §2, §3, §4, §5, §6, §7, §8, §9, §10, §11

[5] = Pharmacokinetics in mice (plasma, liver, brain); details: for concentration at 20 min: C57/BL6, mouse, ip, 10 mg/kg
mice = experiment: Home cage locomotor activity in mice; type: in vivo, mouse; details: vs vehicle
Protocol: Mice were placed in a clean cage, similar to their home-cage (28.2×17.1 cm), without bedding and lid to allow video recording from the top. Tacking was performed and distance travelled (30 min session) was analyzed using ANY-Maze™ tracking software (version 499z) to assess the locomotor activity in a home-cage environment. Animals received a single dose of compound or vehicle solution 1 hour before testing.
as §12, with “Drug preparation and administration: All” for “All”, “20” for “10”, “5 or” for “5,”, “10” for “10 or 20”, “locomotor activity” for “Y maze”, “1 hour” for “30 minutes”

[6] = 1 mg/kg i.p. 30 min before testing
[7] = 10 mg/kg i.p. 30 min before testing
[8] = 5 mg/kg i.p. 30 min before testing
[9] = 1 mg/kg i.p. 60 min before testing
[10] = 5 mg/kg i.p. 60 min before testing
[11] = 10 mg/kg i.p. 60 min before testing

| Compound | sensorimotor impairment on rotarod (time of fall) [1] | % left after 2 hr. (MouseLM) [2] | half-life at 10 μM [2] [min] | effect on CRS-induced working memory deficit (percent alternation rate, Y-maze) [3, 6] | effect on CRS-induced working memory deficit (percent alternation rate, Y-maze) [3, 7] | half-life at 10 μM [4] [min] | % left (MouseLM), (1 h) [2] | effect on CRS-induced working memory deficit (percent alternation rate, Y-maze) [3, 8] | locomotor activity (distance travelled, 30 min session) (mice; [9]) | locomotor activity (distance travelled, 30 min session) (mice; [10]) | locomotor activity (distance travelled, 30 min session) (mice; [11]) | molar concentration range reached in mouse brain tissue ([5]; 10 mg/kg dose i.p.) | % left (Human LM), (1 h) [4] [%] | also measured |
| --- | --- | --- | --- | --- | --- | --- | --- | --- | --- | --- | --- | --- | --- | --- |
| C#Cc1ccc2c(c1)C(c1ccccc1F)=N[C@@H](C)c1c(C(=O)N(C)C)ncn1-2 [GL-I-54, (S)-8-ethynyl-6-(2-fluorophenyl)-N,N,4-trimethyl-4H-benzo[f]imidazo[1,5-a][1,4]diazepine-3-carboxamide] | most severe motor impairment | 15.0% and 15.0 ± 3.0% | 53 ± 10 | decreased performance | significant reversal of CRS-induced impairment in working memory; also recorded: significant pro-cognitive effect | 100 ± 4.5 |  |  |  |  |  |  |  | % left after 2 hr. (Human LM) ([4]; 2 hr): 36.4 ± 2.0%; molar concentration range reached in mouse brain tissue ([5]; i.p. dosing at 3 mg/kg): high submicromolar to low micromolar values |
| C#Cc1ccc2c(c1)C(c1ccccc1F)=N[C@H](C)c1c(C(=O)N(C)C)ncn1-2 [GL-II-73, (R)-8-ethynyl-6-(2-fluorophenyl)-N,N,4-trimethyl-4H-benzo[f]imidazo[1,5-a][1,4]diazepine-3-carboxam] | no sensorimotor impairment |  |  |  | pro-cognitive effect |  | 81.6% and 86.6 ± 0.2% | pro-cognitive effect | no significant effect; also recorded: no effect on locomotor activity | significant increase in locomotion; also recorded: significant increase in distance traveled | significant increase in locomotion; also recorded: significant increase in distance traveled | micromolar range |  | Half-life (min) (MouseLM) [2]: 309 ± 36 min; effect on CRS-induced working memory deficit (percent alternation rate, Y-maze) ([3]; 20 mg/kg i.p. 30 min before testing): pro-cognitive effect; Half-life (min) (HumanLM) [4]: 755 ± 243 min |
| C#Cc1ccc2c(c1)C(c1ccccc1F)=N[C@H](C)c1c(C(=O)NCC)ncn1-2 [GL-II-74, (R)—N-ethyl-8-ethynyl-6-(2-fluorophenyl)-4-methyl-4H-benzo[f]imidazo[1,5-a][1,4]diazepine-3-carboxamide] | no sensorimotor impairment |  | 69 ± 3 |  |  | 751 ± 214 | 56.5 ± 0.3% |  | no significant effect; also recorded: no effect on locomotor activity | no significant effect; also recorded: no effect on locomotor activity | significant increase in locomotion; also recorded: significant increase in distance traveled | micromolar range |  | Alternation rate (%) ([3]; Dose 1-5-10 mg/kg): <58.3% |
| C#Cc1ccc2c(c1)C(c1ccccc1F)=N[C@H](C)c1c(C(=O)NC3CC3)ncn1-2 [GL-II-75, (R)—N-cyclopropyl-8-ethynyl-6-(2-fluorophenyl)-4-methyl-4H-benzo[f]imidazo[1,5-a][1,4]diazepine-3-carboxamide] |  |  | 239 ± 22 | significant reversal of CRS-induced impairment in working memory; also recorded: significant pro-cognitive effect | significant reversal of CRS-induced impairment in working memory; also recorded: significant pro-cognitive effect | 712 ± 165 | 83.5 ± 0.2% | significant reversal of CRS-induced impairment in working memory; also recorded: significant pro-cognitive effect | significant increase in locomotion; also recorded: significant increase in distance traveled | no significant effect; also recorded: no effect on locomotor activity | significant increase in locomotion; also recorded: significant increase in distance traveled | micromolar range |  |  |
| C#Cc1ccc2c(c1)C(c1ccccc1F)=N[C@H](C)c1c(C(=O)N3CCCC3)ncn1-2 [GL-II-76, (R)-(8-ethynyl-6-(2-fluorophenyl)-4-methyl-4H-benzo[f]imidazo[1,5-a][1,4]diazepin-3-yl)(pyrrolidin-1-yl)methanone] | no sensorimotor impairment |  | 23 ± 1 |  |  | 154 ± 5 | 18.6 ± 0.3% |  |  |  |  |  | 75 ± 0.1 | Alternation rate (%) ([3]; Dose 10 mg/kg): 47.2%; concentration at 20 min ([5]; brain): 204 ± 101 ng/g; concentration at 20 min ([5]; liver): 4360 ng/g; concentration at 20 min ([5]; plasma): 605 ± 198 ng/mL; brain penetrance ([5]; mice and rats): brain-penetrant at the exception of GI-II-76; brain concentrations, suitability for CNS-active drug ([5]; pilot cassette study, mice and rats): suboptimal |
| C#Cc1ccc2c(c1)C(c1ccccc1F)=N[C@H](C)c1c(C(=O)NC)ncn1-2 [MP-III-022] |  | 76.6% and 76.6 ± 0.2% | 164 ± 10 |  |  | 141 ± 18 |  |  |  |  |  |  | 69.4 ± 0.4 | Alternation rate (%) ([3]; Dose 5 mg/kg): 45.5%; locomotor activity (distance travelled, 30 min session) (mice; i.p. 60 min before testing, dose not given): no significant difference; also recorded: no effect |
